Assay results reported in patent US20060100431A1, “Biologically active compounds” (Amura Therapeutics Limited, priority 2002, published 2006).

Experiments:
Type in all cases: biochemical
human cathepsin L = target: T1, human cathepsin L (Homo sapiens, UniProt P07711); test: Cathepsin L peptidase activity assay (Ki); settings: read-out: Ki, inhibitors of cathepsin L
T1 construct: purchased CN Biosciences
Method: Unless otherwise stated, all general chemicals and biochemicals were purchased from either the Sigma Chemical Company, Poole, Dorset, U.K or from Fisher Scientific UK, Loughborough, Leicestershire, U.K. Absorbance assays were carried out in flat-bottomed 96-well plates (Spectra; Greiner Bio-One Ltd., Stonehouse, Gloucestershire, U.K.) using a SpectraMax PLUS384 plate reader (Molecular Devices, Crawley, U.K.). Fluorescence high throughput assays were carried out in either 384-well microtitre plates (Corning Costar 3705 plates, Fisher Scientific) or 96-well ‘U’ bottomed Microfluor W1 microtitre plates (Thermo Labsystems, Ashford, Middlesex, U.K.). Fluorescence assays were monitored using a SpectraMax Gemini fluorescence plate reader (Molecular Devices). For substrates employing either a 7-amino-4-methylcoumarin (AMC) or a 7-amino-4-trifluoromethylcoumarin (AFC) fluorophore, assays were monitored at an excitation wavelength of 365 nm and an emission wavelength of 450 nm and the fluorescence plate reader calibrated with AMC. For substrates employing a 3-amino-benzoyl (Abz) fluorophore, assays were monitored at an excitation wavelength of 310 nm and an emission wavelength of 445 nm; the fluorescence plate reader calibrated with 3-amino-benzamide (Fluka). Unless otherwise indicated, all the peptidase substrates were purchased from Bachem UK, St Helens, Merseyside, UK. Substrates utilizing fluorescence resonance energy transfer methodology (i.e. FRET-based substrates) were synthesized at Incenta Limited using published methods (Atherton & Sheppard, Solid Phase Peptide Synthesis, IRL Press, Oxford, U.K, 1989) and employed Abz (2-aminobenzoyl) as the fluorescence donor and 3-nitro-tyrosine [Tyr(NO2)] as the fluorescence quencher (Meldal, M. and Breddam, K., Anal. Biochem, 195, 141-147, 1991). Hydroxyethylpiperazine ethanesulfonate (HEPES), tris-hydroxylmethyl aminomethane (tris) base, bis-tris-propane and all the biological detergents (e.g. CHAPS, zwittergents, etc.) were purchased from CN Biosciences UK, Beeston, Nottinghamshire, U.K. Glycerol was purchased from Amersham Pharmacia Biotech, Little Chalfont, Buckinghamshire, U.K. Stock solutions of substrate or inhibitor were made up to 10 mM in 100% dimethylsulfoxide (DMSO) (Rathburns, Glasgow, U.K.) and diluted as appropriately required. In all cases the DMSO concentration in the assays was maintained at less than 1% (vol./vol.).
Assay protocols were based on literature precedent (Table 4; Barrett, A. J., Rawlings, N. D. and Woessner, J. F., 1998, Handbook of Proteolytic Enzymes, Academic Press, London and references therein) and modified as required to suit local assay protocols. Enzyme was added as required to initiate the reaction and the activity, as judged by the change in fluorescence upon conversion of substrate to product, was monitored over time. All assays were carried out at 25±1° C.
Bovine cathepsin S, human cathepsin L, human cathepsin H and human cathepsin B were obtained from CN Biosciences. Recombinant human cathepsin S, human cathepsin K and human cathepsin X were obtained from Dr. Boris Turk (Josef Stefan Institute, Ljubljana, Slovenia). Unless otherwise stated, all peptidase activity assays were carried out in 10 mM bis-tris-propane (BTP), pH 6.5 containing 1 mM EDTA, 5 mM 2-mercaptoethanol and 1 mM CaCl2. Human cathepsin H activity assays were carried out in 10 mM BTP pH 6.5, 142 mM NaCl2, 1 mM CaCl2, 1 mM EDTA, 1 mM DTT, 0.035 mM Zwittergent 3-16. Human cathepsin K assays were carried out in 100 mM sodium acetate; pH 5.5 containing 20 mM L-cysteine and 1 mM EDTA (Bossard, M. J., et. al., J. Biol. Chem., 21, 12517-12524, 1996). Human cathepsin X assays were carried out in 100 mM sodium acetate; pH 5.5 containing 20 mM L-cysteine; 0.05% (w/v) Brij 35 and 1 mM EDTA (Santamaria, I., et. al., J. Biol. Chem., 273, 16816-16823, 1998; Klemencic, J, et al., Eur. J. Biochem., 267, 5404-5412, 2000). […]

Wild-type cruzipain = Wild-type cruzipain (Trypanosoma cruzi, UniProt P25779); test: Trypanosoma cruzi cruzipain peptidase activity assay (Ki); settings: read-out: Ki, inhibitors of cruzain and cruzipains
Sequence of Wild-type cruzipain (P25779 whole entry): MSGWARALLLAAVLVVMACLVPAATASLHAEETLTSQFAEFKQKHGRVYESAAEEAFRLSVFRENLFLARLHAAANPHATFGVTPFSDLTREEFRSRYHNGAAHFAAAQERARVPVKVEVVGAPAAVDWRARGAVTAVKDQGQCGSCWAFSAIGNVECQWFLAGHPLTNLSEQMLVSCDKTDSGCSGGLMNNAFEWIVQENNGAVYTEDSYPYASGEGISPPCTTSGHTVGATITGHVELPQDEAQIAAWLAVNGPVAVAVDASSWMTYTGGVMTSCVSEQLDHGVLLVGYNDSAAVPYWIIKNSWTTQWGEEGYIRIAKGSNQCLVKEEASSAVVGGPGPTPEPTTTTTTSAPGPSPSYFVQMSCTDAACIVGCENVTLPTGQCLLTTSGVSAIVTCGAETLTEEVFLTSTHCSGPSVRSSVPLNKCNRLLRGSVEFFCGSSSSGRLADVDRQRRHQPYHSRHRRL
Procedure, shortened: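 Native cruzipain from T. cruzi Dm28 epimastigotes, 2.5 nM, in 100 mM sodium phosphate pH 6.75 with 1 mM EDTA and 10 mM L-cysteine, 25 °C, DMSO <1%. Rates taken from continuous fluorogenic substrate read; Ki by regression assuming reversible pure-competitive inhibition.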

CPB2.8ΔCTE = target: T2, CPB2.8ΔCTE (Leishmania mexicana, UniProt P36400); test: Leishmania mexicana cysteine protease B (CPB) peptidase activity assay (Ki); settings: Ki, inhibitors of Leismania mexicana CPB protease
T2 construct: Wild-type recombinant CPB without the C-terminal extention (i.e. CPB2.8ΔCTE); Dr. Jeremy Mottram (Wellcome Centre for Molecular Parasitology, University of Glasgow)
T2 sequence (P36400 126-343, stated change not applied): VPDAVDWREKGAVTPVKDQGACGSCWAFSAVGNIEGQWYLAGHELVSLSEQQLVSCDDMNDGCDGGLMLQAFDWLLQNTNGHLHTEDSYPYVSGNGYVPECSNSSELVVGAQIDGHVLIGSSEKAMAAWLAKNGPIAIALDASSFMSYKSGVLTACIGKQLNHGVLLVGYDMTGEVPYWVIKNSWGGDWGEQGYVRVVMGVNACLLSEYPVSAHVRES
Procedure, shortened: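 Recombinant CPB2.8ΔCTE (0.25 nM) was assayed in 100 mM sodium acetate pH 5.5 with 1 mM EDTA, 200 mM NaCl and 10 mM DTT at 25 °C, DMSO <1%, enzyme added to start. Rates were taken from continuous fluorescence slopes; apparent Ki was fitted assuming reversible, pure-competitive inhibition.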

T1 sequence (P07711 114-333): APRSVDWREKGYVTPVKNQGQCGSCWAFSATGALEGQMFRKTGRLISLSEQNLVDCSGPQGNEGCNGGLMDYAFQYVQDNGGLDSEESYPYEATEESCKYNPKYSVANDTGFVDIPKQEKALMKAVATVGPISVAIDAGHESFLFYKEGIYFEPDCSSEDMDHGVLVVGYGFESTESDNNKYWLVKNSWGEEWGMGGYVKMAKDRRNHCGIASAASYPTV

Row | Ki (human cathepsin L) [µM] | SMILES | Ki (Wild-type cruzipain) [µM] | Ki (CPB2.8ΔCTE) [µM]
1 | < 5 | CN(C)c1ccc(C(=O)N[C@@H](Cc2ccc(O)cc2)C(=O)N2CC[C@@H]3[C@H]2C(=O)CN3C(=O)c2ccccc2S(C)(=O)=O)cc1 [Example 357, (3aR,6aS)-4-Dimethylamino-N-{(1S)-1-(4-hydroxy-benzyl)-2-[4-(2-methanesulfonyl-benzoyl)-6-oxo-hexahydro-pyrrolo[3,2-b]pyrrole-1-yl]-2-oxo-ethyl}-benzamide] | – | –
2 | < 5 | Cc1ccc(C(=O)N2CC(=O)[C@@H]3[C@H]2CCN3C(=O)[C@H](CC2CCCCC2)NC(=O)c2ccsc2)cc1 [Example 293, (3aR,6aS)-Thiophene-3-carboxylic acid {(1S)-1-cyclohexylmethyl-2-[4-(4-methyl-benzoyl)-6-oxo-hexahydro-pyrrolo[3,2-b]pyrrol-1-yl]-2-oxo-ethyl}-amide] | – | –
3 | < 5 | O=C(N[C@@H](CSCc1ccccc1)C(=O)N1CC[C@@H]2[C@H]1C(=O)CN2C(=O)c1ccccc1)c1ccccc1 [Example 285, (3aR,6aS)-N-[(1R)-2-(4-Benzoyl-6-oxo-hexahydro-pyrrolo[3,2-b]pyrrol-1-yl)-1-benzylsulfanylmethyl-2-oxo-ethyl]-benzamide] | – | –
4 | < 5 | CN(C)c1ccc(C(=O)N[C@@H](Cc2ccc(O)cc2)C(=O)N2CC[C@@H]3[C@H]2C(=O)CN3C(=O)c2cccs2)cc1 [Example 359, (3aR,6aS)-4-Dimethylamino-N-{(1S)-1-(4-hydroxy-benzyl)-2-oxo-2-[6-oxo-4-(thiophene-2-carbonyl)-hexahydro-pyrrolo[3,2-b]pyrrol-1-yl]-ethyl}-benzamide] | – | –
5 | < 5 | Nc1ccc(C(=O)N2CC(=O)[C@@H]3[C@H]2CCN3C(=O)[C@H](CSCc2ccccc2)NC(=O)c2ccsc2)cc1 [Example 268, (3aR,6aS)-Thiophene-3-carboxylic acid {(1R)-2-(4-(4-amino-benzoyl)-6-oxo-hexahydro-pyrrolo[3,2-b]pyrrol-1-yl]-1-benzylsulfanylmethyl-2-oxo-ethyl}-amide] | – | –
6 | – | COC1CCCC(C(=O)N2CC(=O)[C@@H]3[C@H]2CCN3C(=O)[C@H](CC(C)C)NC(=O)c2ccc(N(C)C)cc2)C1 (stereo partly drawn) [Example 139, (3aR,6aS)-4-Dimethylamino-N-{(1S)-1-[4-(3-methoxy-cyclohexanecarbonyl)-6-oxo-hexahydro-pyrrolo[3,2-b]pyrrole-1-carbonyl]-3-methyl-butyl}-benzamide] | < 5 | < 5
7 | – | CC(C)C[C@H](NC(=O)c1ccc(N(C)C)cc1)C(=O)N1CC[C@@H]2[C@H]1C(=O)CN2C(=O)c1cc2ccccc2s1 [Example 100, (3aR,6aS)-N-{(1S)-1-[4-(Benzo[b]thiophene-2-carbonyl)-6-oxo-hexahydro-pyrrolo[3,2-b]pyrrole-1-carbonyl)-3-methyl-butyl}-4-dimethylamino-benzamide] | < 5 | < 5
8 | – | CC(C)C[C@H](NC(=O)c1ccc(N(C)C)cc1)C(=O)N1OC[C@@H]2[C@H]1C(=O)CN2C(=O)c1ccccc1 [Example 248, (3aS,6aS)-N-[(1S)-1-(4-Benzoyl-6-oxo-hexahydro-2-oxa-1,4-diaza-pentalene-1-carbonyl)-3-methyl-butyl]-4-dimethylamino-benzamide] | < 5 | < 5
9 | – | Cc1ccc(C(=O)N2CC(=O)[C@@H]3[C@H]2CCN3C(=O)[C@H](CC(C)C)NC(=O)c2ccc(N(C)C)cc2)cc1C [Example 114, (3aR,6aS)-4-Dimethylamino-N-{(1S)-1-[4-(3,4-dimethyl-benzoyl)-6-oxo-hexahydro-pyrrolo[3,2-b]pyrrole-1-carbonyl]-3-methyl-butyl}-benzamide] | < 5 | < 5
10 | – | CC(C)C[C@H](NC(=O)c1ccc(N(C)C)cc1)C(=O)N1CC[C@@H]2[C@H]1C(=O)CN2C(=O)CC1CC1 [Example 132, (3aR,6aS)-N-{(1S)-1-[4-(2-Cyclopropyl-acetyl)-6-oxo-hexahydro-pyrrolo[3,2-b]pyrrole-1-carbonyl]-3-methyl-butyl}-4-dimethylamino-benzamide] | < 5 | < 5
11 | – | CC(=O)Nc1ccsc1C(=O)N1CC(=O)[C@@H]2[C@H]1CCN2C(=O)[C@H](CC(C)C)NC(=O)c1ccc(N(C)C)cc1 [Example 165, (3aR,6aS)-N-{(1S)-[4-(3-Acetylamino-thiophene-2-carbonyl)-6-oxo-hexahydro-pyrrolo[3,2-b]pyrrole-1-carbonyl]-3-methyl-butyl}-4-dimethylamino-benzamide] | < 5 | < 5
12 | – | CC(C)C[C@H](NC(=O)c1ccc(N(C)C)cc1)C(=O)N1CC[C@@H]2[C@H]1C(=O)CN2C(=O)c1ccc([N+](=O)[O-])cc1 [Example 47, (3aR,6aS)-4-Dimethylamino-N-{(1S)-3-methyl-1-[4-(4-nitro-benzoyl)-6-oxo-hexahydro-pyrrolo[3,2-b]pyrrole-1-carbonyl]-butyl}-benzamide] | < 5 | < 5
13 | – | CC(C)CCC(=O)N1CC(=O)[C@@H]2[C@H]1CCN2C(=O)[C@H](CC(C)C)NC(=O)c1ccc(C(C)(C)C)cc1 [Example 191, (3aR,6aS)-4-tert-Butyl-N-{(1S)-3-methyl-1-[4-(4-methyl-pentanoyl)-6-oxo-hexahydro-pyrrolo[3,2-b]pyrrole-1-carbonyl]-butyl}-benzamide] | < 5 | < 5
14 | – | CC(C)C[C@H](NC(=O)c1ccc(N(C)C)cc1)C(=O)N1CC[C@@H]2[C@H]1C(=O)CN2C(=O)c1ccco1 [Example 96, (3aR,6aS)-4-Dimethylamino-N-{(1S)-1-[4-(furan-2-carbonyl)-6-oxo-hexahydro-pyrrolo[3,2-b]pyrrole-1-carbonyl]-3-methyl-butyl}-benzamide] | < 5 | < 5
15 | – | CCCCC(=O)N1CC(=O)[C@@H]2[C@H]1CCN2C(=O)[C@H](CC(C)C)NC(=O)c1ccc(N(C)C)cc1 [Example 128, (3aR,6aS)-4-Dimethylamino-N-[(1S)-3-methyl-1-(6-oxo-4-pentanoyl-hexahydro-pyrrolo[3,2-b]pyrrole-1-carbonyl)-butyl]-benzamide] | < 5 | < 5
16 | – | CC(C)C[C@H](NC(=O)c1ccc(-c2ccccc2)s1)C(=O)N1CC[C@@H]2[C@H]1C(=O)CN2C(=O)c1ccccc1 [Example 44, (3aR,6aS)-5-Phenyl-thiophene-2-carboxylic acid [(1S)-1-(4-benzoyl-6-oxo-hexahydro-pyrrolo[3,2-b]pyrrole-1-carbonyl)-3-methyl-butyl]-amide] | < 5 | < 5
17 | – | CC(C)C[C@H](NC(=O)c1ccc(N(C)C)cc1)C(=O)N1CC[C@@H]2[C@H]1C(=O)CN2C(=O)c1cccs1 [Example 95, (3aR,6aS)-4-Dimethylamino-N-{(1S)-3-methyl-1-[6-oxo-4-(thiophene-2-carbonyl)-hexahydro-pyrrolo[3,2-b]pyrrole-1-carbonyl]-butyl}-benzamide] | < 5 | < 5
